Results reported in patent publication EP0530446A2, “Use of sulfur containing carboxylic acids for combatting pathophysiologic excitatory disorders and related diseases as well as allergic diseases and their preparation as medicament” (ASTA Medica Aktiengesellschaft, priority 1991, dated 1993).

What was measured:
EEG der Ratte = experiment: Tele-Stereo-EEG in the rat: prevention of EEG changes caused by hypoglycaemic or ischaemic insult; type: in vivo; conditions: 30 mg/kg i.p., compared with pre-dose value (Vorwert)
Method: Die erfindungsgemäßen Verbindungen der Formel zeigen beispielsweise im Modell zum Nachweis der Prevention der durch hypoglykämischen beziehungsweise ischämischen Insult verursachte Veränderungen im EEG der Ratte (im Vergleich zum Vorwert) bei der parenteralen Applikation (i.p. = intraperitoneal) bei 30 mg/kg (i.p.) des Racemats der alpha-Liponsäure 118 %, bei 30 mg/kg i.p. des (+)-Enantiomers 157 % und bei 30 mg/kg i.p. des (-)-Enantiomers 85 % Änderung der Leistungsdichte des beta-2-Bandes im frontalen Kortex.
Diese Untersuchung erfolgte analog der Methode Dimpfel et al, Neuropsychobiology 16: 163 - 168, (1986) mit der Änderung, daß die Ableitung vom Hippokampus anstelle des Thalamus erfolgt. (Radioelectroencephalography (Tele-Stereo-EEG) in the rat as a pharmacological model to differentiate the central action of flupirtine from that of opiates, diazepam and phenobarbital)
Männliche Fischer-344 Ratten wurden im Alter von 4 bis 5 Monaten 4 bipolar konzentrische Elektroden zusammen mit einem Mikrostecker auf einer gemeinsamen Basisplatte implantiert. Der Stecker diente der Aufnahme eines 4-Kanal-Senders zur telemetrischen Übertragung der aus frontalem Kortex, Hippokampus, Striatum und Formatio Reticularis abgeleiteten Feldpotentiale. Die Signale wurden auf einem Pro Science Computer System in Echtzeit einer Fast Fourier Transformation unterworfen und die Leistungsdichtespektren jeweils über 15 Minuten gemittelt. Die Unterteilung der Spektren in 6 verschiedene Frequenzbereiche erlaubte die Erfassung pharmakonspezifischer Veränderungen in Bezug auf die jeweils vor der Applikation gemessenen Vorwerte innerhalb dieser Frequenzbänder.
Zum Applikationsprotokoll der Substanzen: Die Substanzen wurden intraperitoneal 45 Minuten nach Beginn der Messungen (Vorwert) injiziert. Fünf Minuten später wurden die Messungen wieder gestartet, mindestens über die nächsten 2 Stunden kontinuierlich analysiert und in 15-minütigen Perioden zusammengefaßt. Die Testsubstanzen (zum Beispiel Thioctsäure) wurden in einer Dosierung von 30 mg/kg appliziert. […]

[1] = system: Hippocampusschnitt-Präparat von ethanolabhängigen Ratten; experiment: Hippocampal slice preparation of ethanol-dependent rats after 16 h withdrawal, excitability at decreasing Mg++; conditions: slices 16 h after ethanol withdrawal (5 g/kg/day for 2 weeks), tested at 246 pg/ml
From the text: Die bei Ratten 16 Stunden nach dem Absetzen von Ethanol (5 g/kg/Tag Ethanol über einen Zeitraum von 2 Wochen) aus dem Hippocampus entnommenen Präparate wurden abnehmenden Magnesiumkonzentrationen im Superfusionsmedium ausgesetzt, um Plasizitätsveränderungen bei der Erregbarkeit der Pyramidenzellen nachweisen zu können. Die elektrisch ausgelösten und spontanen Entladungen wurden in Abwesenheit und Gegenwart der S(-)-Form der a-Liponsäure beobachtet.
Zwei Gruppen ausgewachsener, männlicher CD-Ratten (Charles River Wiga) erhielten handelsübliches Rattenfutter ad libitum. Das Trinkwasser wurde durch den Zusatz von 1 g Glukose/Liter gesüßt. Eine der Gruppen erhielt Wasser, das 5 % Ethanol enthielt. Die von den Tieren aufgenommene Wassermenge wurde täglich bestimmt und betrug in beiden Gruppen durchschnittlich 40 ml. Folglich nahm die Ethanolgruppe während des zweiwöchigen Versuches - ausgehend von ihrem durchschnittlichen Gewicht - innerhalb von 24 Stunden etwa 5 g/kg Ethanol auf.
Den Tieren wurde das modifizierte Trinkwasser über einen Zeitraum von 2 Wochen verabreicht. Außerdem wurde das Körpergewicht täglich ermittelt, wobei zwischen den beiden Gruppen keine Differenz beobachtet werden konnte. 16 Stunden vor Beginn der Messung der Erregbarkeit ex vivo erhielten die mit dem Ethanol behandelten Tiere ebenfalls glukosehaltiges Trinkwasser, um den Entzug einzuleiten. […]

[2] = system: Hippocampusschnitt-Präparat von morphiumabhängigen Ratten; experiment: Hippocampal slice preparation of morphine-dependent rats after 16 h withdrawal, excitability at decreasing Mg++; conditions: slices 16 h after morphine withdrawal (2 mg/kg s.c. twice daily for 2 weeks), tested at 100 µM
Method: Die bei Ratten 16 Stunden nach dem Entzug von Morphium (2 mg/kg Morphium subcutan, 2 x täglich über 2 Wochen lang) aus dem Hippocampus entnommenen Präparate wurden abnehmenden Magnesiumkonzentrationen im Superfusionsmedium ausgesetzt, um Platizitätsveränderungen bei der Erregbarkeit der Pyramidenzellen nachweisen zu können. Die elektrisch ausgelösten und spontanen Entladungen wurden in Abwesenheit und Gegenwart der S(-)-Form der a-Liponsäure beobachtet. […] Hierdurch ergibt sich eine Anwendung/Verwendung von a-Liponsäure bei Entziehungserscheinungen bei Drogenabhängigkeit.
Zwei Gruppen ausewachsener, männlicher CD-Ratten (Charles River Wiga) erhielten handelübliches Rattenfutter ad libitum. In den beiden Versuchwochen erhielten die Tiere der ersten Gruppe zweimal täglich 2 mg/kg Morphium. Der Kontrollgruppe wurde Kochsalzlösung injiziert. Das Körpergewicht wurde täglich registriert. 16 Stunden vor Beginn der Messung der Erregbarkeit ex vivo erhielten die mit Morphium behandelten Tiere keine Injektion mehr, um den Entzug einzleiten.
Die Tiere wurden in leichter Narkose ausgeblutet, das Gehirn wurde in toto entnommen und die Formatio hippocampi unter stereomikroskopischer Kontrolle isoliert. […]

[3] = system: PAF (Platelet-activating-Factor)-Acether-Ödem; experiment: PAF-acether paw oedema in the rat; type: in vivo, Ratte; conditions: 0.5 h before PAF-acether 2 ug/animal subplantar, oedema read 1 h later
Method: Die antiallergische Wirkung wird unter anderem durch Untersuchungen im PAF (Platelet-activating-Factor)-Acether-Ödem an der Ratte belegt.
Prinzip der Methode ist es, durch subplantare Injektion von PAF-Acether 2 ug/Tier ein lokal begrenztes Ödem beziehungsweise eine Entzündung an der Rattenpfote zu erzeugen. Die Untersuchungen werden in Anlehnung an die Methode nach SWINGLE und REITER (Agents and actions, 18, 358-365, (1986)) durchgeführt. Die Tiere erhalten die Prüfsubstanzen 0,5 Stunden vor der Auslösung des Ödems verabreicht. 1 Stunde danach wird das Ödem plethysmographisch ermittelt.

| Compound | Änderung der Leistungsdichte des beta-2-Bandes im frontalen Kortex (EEG der Ratte) | ausgelöste Entladungen [1] | spontane Entladungen ([2]; decreasing Mg++) | Spitzenamplituden der Population ([2]; lower Mg++ concentrations) | Ödemhemmung in % ([3]; 25 mg/kg intraperitoneal) | Ödemhemmung in % ([3]; 50 mg/kg intraperitoneal) | Ödemhemmung in % ([3]; 200 mg/kg intraperitoneal) |
| --- | --- | --- | --- | --- | --- | --- | --- |
| O=C(O)CCCC[C@@H]1CCSS1 [(+)-Enantiomers, R(+)-a-Liponsäure] | 157% |  |  |  |  |  |  |
| O=C(O)CCCC[C@H]1CCSS1 [(-)-Enantiomers, S(-)-a-Liponsäure] | 85% | vollständige Dämpfung | abzuschwächen | auf Normalwerte zu senken |  |  |  |
| O=C(O)CCCCC1CCSS1 (racemic) [α-Liponsäure, reference compound] | 118% |  |  |  | 14% | 16% |  |
| O=C(O)CCCCC(S)CCS (stereo not shown) [Dihydroliponsäure, 6,8-Dimercapto-octansäure] |  |  |  |  |  | 63% | 73% |
